Assay results as given in patent US12152038B2, “Vasopressin receptor antagonists and products and methods related thereto” (Neumora Therapeutics, Inc., priority 2017, dated 2024).

Assays:
[1] = target: T1, human Arginine Vasopressin Receptor 1a (AVPR1a) (Homo sapiens, UniProt P37288); assay: Vasopressin V1a receptor antagonist assay (FLIPR calcium, CHO-AVPR1a cells); type: cell-based
T1 construct: expressed in transfected cells; host or cells: CHO (CHO-AVPR1a, kept under G418 selection)
Summary of the method: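 CHO cells expressing human AVPR1a were loaded with Calcium-6 dye and preincubated with compound for 15 min at 37° C. Cells were then challenged with AVP at its daily-determined EC80, and FLIPR fluorescence was read. Compounds were tested in duplicate as 10-point 1:3 dilutions from a top final concentration of 3 μM.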

[2] = target: T2, human Oxytocin Receptor (hOTR) (Homo sapiens, UniProt P30559); assay: Oxytocin receptor (OTR) antagonist assay (FLIPR calcium, CHEM-1-hOTR cells); type: cell-based
T2 construct: host or cells: CHEM-1 (ready-to-assay frozen cells)
T2 sequence (P30559 1-389): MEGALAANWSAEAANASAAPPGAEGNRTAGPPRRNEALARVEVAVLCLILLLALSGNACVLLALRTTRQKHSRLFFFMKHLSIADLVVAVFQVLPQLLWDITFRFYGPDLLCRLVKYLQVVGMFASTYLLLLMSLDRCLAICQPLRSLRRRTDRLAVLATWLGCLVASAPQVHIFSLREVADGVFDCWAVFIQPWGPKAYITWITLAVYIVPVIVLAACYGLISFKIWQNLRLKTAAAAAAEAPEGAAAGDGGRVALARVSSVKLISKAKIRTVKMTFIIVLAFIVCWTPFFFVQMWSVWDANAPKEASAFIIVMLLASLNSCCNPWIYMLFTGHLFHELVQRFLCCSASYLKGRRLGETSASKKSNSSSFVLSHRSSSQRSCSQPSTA
Summary of the method: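 CHEM-1 cells expressing human OTR were loaded with Calcium-6 dye in HBSS/20 mM HEPES and preincubated with compound (10-point, 1:3 series) for 15 min at 37° C. Cells were then challenged with oxytocin at its daily-determined EC80. Calcium fluorescence was read on FLIPR for 3 min after each addition.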

T1 sequence (P37288 whole entry): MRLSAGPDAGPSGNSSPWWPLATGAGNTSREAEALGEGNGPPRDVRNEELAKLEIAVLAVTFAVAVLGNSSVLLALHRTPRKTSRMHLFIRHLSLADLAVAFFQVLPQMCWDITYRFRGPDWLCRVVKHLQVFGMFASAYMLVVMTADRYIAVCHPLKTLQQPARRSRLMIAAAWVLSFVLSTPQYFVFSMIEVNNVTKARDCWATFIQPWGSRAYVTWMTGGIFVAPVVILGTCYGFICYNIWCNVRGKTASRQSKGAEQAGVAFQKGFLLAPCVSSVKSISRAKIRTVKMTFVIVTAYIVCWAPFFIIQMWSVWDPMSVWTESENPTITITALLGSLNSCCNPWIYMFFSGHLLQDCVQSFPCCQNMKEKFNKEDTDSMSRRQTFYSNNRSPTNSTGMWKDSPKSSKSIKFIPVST

Row | SMILES | IC50 [1] [nM] | IC50 [2] [nM]
1 | O=C(N1CC2(C1)CN(c1cnccn1)C2)N1CCOCc2cc(Cl)ccc21 [8-13] | < 100 | ≥ 1000
2 | O=C(N1CC2(C1)CN(c1cccc(F)n1)C2)N1CCc2cc(Cl)ccc21 [1-78] | < 100 | ≥ 1000
3 | CC1COc2cc(Cl)ccc2N1C(=O)N1CC2(C1)CN(c1ncccn1)C2 (single isomer, unassigned) [1-83-B, (7-chloro-3-methyl-2,3-dihydro-4H-benzo[b][1,4]oxazin-4-yl)(6-(pyrimidin-2-yl)-2,6-diazaspiro[3.3]heptan-2-yl)methanone] | < 100 | 100 to 500
4 | CC1COc2cc(F)ccc2N1C(=O)N1CC2(C1)CN(c1ccc(F)cn1)C2 (stereo not shown) [12-1, (7-fluoro-3-methyl-2,3-dihydro-4H-benzo[b][1,4]oxazin-4-yl)(6-(5-fluoropyridin-2-yl)-2,6-diazaspiro[3.3]heptan-2-yl)methanone] | < 100 | 500 to 1000
5 | CC1CN(C(=O)N2CC3(C2)CN(c2ccc(F)cn2)C3)c2ccc(F)cc2O1 (single isomer, unassigned) [9-4-B] | < 100 | ≥ 1000

Next, values leading:

Row | IC50 [1] [nM] | IC50 [2] [nM] | SMILES
6 | < 100 | ≥ 1000 | O=C(N1CC2(C1)CN(c1cnccn1)C2)N1CCC(O)c2cc(Cl)ccc21 (single isomer, unassigned) [13-3-A]
7 | < 100 | 100 to 500 | Cc1cnc(N2CC3(CN(C(=O)N4c5ccc(Cl)cc5OCC4C)C3)C2)cn1 (single isomer, unassigned) [20-5-B]
8 | < 100 | 100 to 500 | Cc1ccnc(N2CC3(CN(C(=O)N4c5ccc(Cl)cc5OCC4C)C3)C2)n1 (stereo not shown) [20-12]
9 | < 100 | 500 to 1000 | CC1COc2cc(Cl)c(F)cc2N1C(=O)N1CC2(C1)CN(c1ncccn1)C2 (single isomer, unassigned) [19-2-B]
10 | < 100 | < 100 | CC1COc2cc(Cl)ccc2N1C(=O)N1CC2(C1)CN(c1cc(C#N)ccn1)C2 (single isomer, unassigned) [20-6-B]
11 | < 100 | 100 to 500 | COc1ccnc(N2CC3(CN(C(=O)N4c5ccc(Cl)cc5OCC4C)C3)C2)n1 (stereo not shown) [20-9]
